Holding throughout (format): in vivo
Experiment [1] has as its system Euschistus heros (Neotropical Brown Stink Bug). Kind of experiment: Example B3: Euschistus heros, soybean leaves, N2 nymphs. As to conditions: for percent effect (mortality or growth inhibition) at 200 ppm: 120 h, read-out: effect in at least one of the two categories (mortality or growth inhibition). The method, then: Soybean leaves on agar in 24-well microtiter plates were sprayed with aqueous test solutions prepared from 10,000 ppm DMSO stock solutions. After drying the leaves were infested with N2 nymphs. The samples were assessed for mortality and growth inhibition in comparison to untreated samples 5 days after infestation.

The test system of experiment [2] is Myzus persicae (Green peach aphid). As to the kind of experiment: Example B6: Myzus persicae systemic activity, pea seedlings. As to conditions: for mortality at 24 ppm: 144 h. Here is the method:
Roots of pea seedlings infested with an aphid population of mixed ages were placed directly into aqueous test solutions prepared from 10,000 DMSO stock solutions. The samples were assessed for mortality 6 days after placing seedlings into test solutions.

The test system of experiment [3] is Plutella xylostella (Diamond Back Moth). As to the kind of experiment: Example B7: Plutella xylostella, artificial diet, L2 larvae. The note with it: 120 h, read-out: effect in at least one of the two categories (mortality or growth inhibition); for percent effect (mortality or growth inhibition) at 200 ppm: application rate of 200 ppm, L2 larvae, 5 days after infestation. Here is the method: 24-well microtiter plates with artificial diet were treated with aqueous test solutions prepared from 10,000 ppm DMSO stock solutions by pipetting. After drying, the plates were infested with L2 larvae (10 to 15 per well). The samples were assessed for mortality and growth inhibition in comparison to untreated samples 5 days after infestation.

For experiment [4], the system named is Myzus persicae (Green peach aphid). Kind of experiment: Example B5: Myzus persicae feeding/contact activity, sunflower leaf discs. As to conditions: foliar; for mortality at 200 ppm: 144 h. The method, then: Sunflower leaf discs were placed onto agar in a 24-well microtiter plate and sprayed with aqueous test solutions prepared from 10,000 ppm DMSO stock solutions. After drying, the leaf discs were infested with an aphid population of mixed ages. The samples were assessed for mortality 6 days after infestation.

A further experiment concerns Melodoigyne incognita. As to the kind of experiment: Example B14: Melodoigyne incognita juvenile mobility, in vitro profiling in 96 well plate. As to conditions: read-out: control (juvenile mobility). Here is the method: Test solutions are prepared from 10,000 ppm DMSO stock solutions with a TECAN robot to achieve 20 μL of 1000, 200, 100, 50, 25 and 12.5 ppm. For each concentration three replicates are produced. Per well, 80 μL nematode solution is added containing 100 to 150 freshly harvested second stage juveniles of Melodoigyne incognita. The plates are covered and stored at room temperature in the dark and incubated for 24 h. Mobility of the exposed juveniles in a treated well is measured using an imaging tool and compared to an average of 12 untreated replicates.

Experiment [5] deals with Diabrotica Balteata (Corn Root Worm). As to the kind of experiment: Example B2: Diabrotica balteata, maize sprouts, L2 larvae. The note with it: Diabrotica balteata, 96 h, application rate of 200 ppm; L2 larvae; 4 days after infestation; read-out: effect in at least one of the two categories (mortality or growth inhibition). Here is the method: Maize sprouts placed onto an agar layer in 24-well microtiter plates were treated with aqueous test solutions prepared from 10,000 ppm DMSO stock solutions by spraying. After drying, the plates were infested with L2 larvae (6 to 10 per well). The samples were assessed for mortality and growth inhibition in comparison to untreated samples 4 days after infestation.

In experiment [6] the test system is Spodoptera littoralis (Egyptian Cotton Leaf Worm). Kind of experiment: Example B9: Spodoptera littoralis, cotton leaf discs (mortality, anti-feeding, growth inhibition). The note with it: foliar, 72 h, read-out: control (mortality, anti-feeding effect or growth inhibition). Here is the method:
Cotton leaf discs were placed onto agar in 24-well microtiter plates and sprayed with aqueous test solutions prepared from 10,000 ppm DMSO stock solutions. After drying the leaf discs were infested with five L1 larvae. The samples were assessed for mortality, anti-feeding effect, and growth inhibition in comparison to untreated samples 3 days after infestation. Control of Spodoptera littoralis by a test sample is given when at least one of the categories mortality, anti-feedant effect, and growth inhibition is higher than the untreated sample.

The mark [7] stands for this setting: Euschistus heros, application rate of 200 ppm, N2 nymphs, 5 days after infestation.
The mark [8] stands for this setting: Myzus persicae, test rate of 24 ppm, mixed ages, 6 days after placing seedlings into test solutions, read-out: mortality.
Setting [9] is: Myzus persicae, application rate of 200 ppm, mixed ages, 6 days after infestation, read-out: mortality.
[10] abbreviates: 200 ppm, after 24 h, second stage juveniles.
[11] abbreviates: application rate of 200 ppm, L1 larvae, 3 days after infestation.

SMILES strings stand for the structures. Read-outs that look alike come from different tables or passages of the source. A value given as a limit tells only on which side of the number the result lay.

The mortality is the share of the test organisms that died. `CCC(=O)Nc1cnc(-c2nc3cc(C(F)(F)F)ncc3n2C)c(S(=O)(=O)CC)c1` [P25, N-[5-ethylsulfonyl-6-[3-methyl-6-(trifluoromethyl)imidazo[4,5-c]pyridin-2-yl]-3-pyridyl]propanamide]: the percent effect (mortality or growth inhibition) at 200 ppm in experiment [1] (setting [7]), in experiment [3] and in experiment [5] was at least 80% in each case. The mortality at 24 ppm in experiment [2] (setting [8]) was at least 80%. In experiment [4] (setting [9]), the mortality at 200 ppm is at least 80%. Further, the pest or weed control at 200 ppm with Melodoigyne incognita (setting [10]) was at least 80%.
As for `CCS(=O)(=O)c1cc(N(C)C(=O)CCl)cnc1-c1nc2cc(C(F)(F)F)ncc2n1C` [P22, 2-chloro-N-[5-ethylsulfonyl-6-[3-methyl-6-(trifluoromethyl)imidazo[4,5-c]pyridin-2-yl]-3-pyridyl]-N-methyl-acetamide], in experiment [1] (setting [7]), the percent effect (mortality or growth inhibition) at 200 ppm was at least 80%. For the same molecule, the mortality at 24 ppm in experiment [2] (setting [8]) was at least 80%. The percent control (mortality, anti-feedant effect or growth inhibition) at 200 ppm in experiment [6] (setting [11]) was at least 80%. Further, the mortality at 200 ppm in experiment [4] (setting [9]) is at least 80%. In the experiment on Melodoigyne incognita (setting [10]), the pest or weed control at 200 ppm is at least 80%.
Turning to `CCC(=O)N(c1cnc(-c2nc3cc(C(F)(F)F)ncc3n2C)c(S(=O)(=O)CC)c1)C1CC1` [P40, N-cyclopropyl-N-[5-ethylsulfonyl-6-[3-methyl-6-(trifluoromethyl)imidazo[4,5-c]pyridin-2-yl]-3-pyridyl]propanamide], the percent effect (mortality or growth inhibition) at 200 ppm in experiment [1] (setting [7]), in experiment [3] and in experiment [5] was at least 80% each time. In addition, the mortality at 24 ppm in experiment [2] (setting [8]) was at least 80%. Besides, in experiment [6] (setting [11]), the percent control (mortality, anti-feedant effect or growth inhibition) at 200 ppm was at least 80%. In experiment [4] (setting [9]), the mortality at 200 ppm is at least 80%. The pest or weed control at 200 ppm in the experiment on Melodoigyne incognita (setting [10]) is at least 80%.
In the case of `CCS(=O)(=O)c1cc(N(C)C(=O)CS(C)(=O)=O)cnc1-c1nc2cc(C(F)(F)F)ncc2n1C` [P17, N-[5-ethylsulfonyl-6-[3-methyl-6-(trifluoromethyl)imidazo[4,5-c]pyridin-2-yl]-3-pyridyl]-N-methyl-2-methylsulfonyl-acetamide], the percent effect (mortality or growth inhibition) at 200 ppm in experiment [1] (setting [7]) and in experiment [5] was at least 80% throughout. Moreover, the mortality at 24 ppm in experiment [2] (setting [8]) is at least 80%. In addition, in experiment [6] (setting [11]), the percent control (mortality, anti-feedant effect or growth inhibition) at 200 ppm is at least 80%. Besides, in experiment [4] (setting [9]), the mortality at 200 ppm was at least 80%. In the experiment with Melodoigyne incognita (setting [10]), the pest or weed control at 200 ppm is at least 80%.
As to `CCS(=O)(=O)c1cc(N2CCOC2=O)cnc1-c1nc2cc(C(F)(F)F)ncc2n1C` [P34, 3-[5-ethylsulfonyl-6-[3-methyl-6-(trifluoromethyl)imidazo[4,5-c]pyridin-2-yl]-3-pyridyl]oxazolidin-2-one], the mortality at 50 ppm in experiment [1] (Concentration 50 ppm, Euschistus heros (Example B3), read-out: Mortality (%)) came out at 80%. The percent effect (mortality or growth inhibition) at 200 ppm in experiment [1] (setting [7]) and in experiment [3] was at least 80% throughout. Besides, the mortality at 1.5 ppm in experiment [2] (Concentration 1.5 ppm, Myzus persicae (systemic, Example B6), read-out: Mortality (%)) is 100%. The mortality at 24 ppm in experiment [2] (setting [8]) is at least 80%. For the same molecule, the percent control (mortality, anti-feedant effect or growth inhibition) at 200 ppm in experiment [6] (setting [11]) was at least 80%. Further, the mortality at 200 ppm in experiment [4] (setting [9]) is at least 80%. Besides, in experiment [4] (Concentration 12.5 ppm, Myzus persicae (feeding/contact, Example B5), read-out: Mortality (%)), the mortality at 12.5 ppm came out at 100%. For the same molecule, in the experiment with Melodoigyne incognita (setting [10]), the pest or weed control at 200 ppm is at least 80%.
Regarding `CCS(=O)(=O)c1cc(N2CCN(OC)C2=O)cnc1-c1nc2cc(C(F)(F)F)ncc2n1C` [P35, 1-[5-ethylsulfonyl-6-[3-methyl-6-(trifluoromethyl)imidazo[4,5-c]pyridin-2-yl]-3-pyridyl]-3-methoxy-imidazolidin-2-one], the percent effect (mortality or growth inhibition) at 200 ppm in experiment [1] (setting [7]) was at least 80%. In addition, in experiment [2] (setting [8]), the mortality at 24 ppm is at least 80%. Moreover, the percent control (mortality, anti-feedant effect or growth inhibition) at 200 ppm in experiment [6] (setting [11]) was at least 80%. In addition, in experiment [4] (setting [9]), the mortality at 200 ppm was at least 80%.
With `CCS(=O)(=O)c1cc(N(C)C(=O)C(C)(C)C)cnc1-c1nc2cc(C(F)(F)F)ncc2n1C` [P26, N-[5-ethylsulfonyl-6-[3-methyl-6-(trifluoromethyl)imidazo[4,5-c]pyridin-2-yl]-3-pyridyl]-N,2,2-trimethyl-propanamide], the percent effect (mortality or growth inhibition) at 200 ppm in experiment [1] (setting [7]) and in experiment [3] was at least 80% each time. Also, the mortality at 24 ppm in experiment [2] (setting [8]) was at least 80%. Also, the mortality at 200 ppm in experiment [4] (setting [9]) is at least 80%. For the same molecule, the pest or weed control at 200 ppm in the experiment with Melodoigyne incognita (setting [10]) was at least 80%.
Take `CCS(=O)(=O)c1cc(N(C(C)=O)C2CC2)cnc1-c1nc2cc(C(F)(F)F)ncc2n1C` [P10, N-cyclopropyl-N-[5-ethylsulfonyl-6-[3-methyl-6-(trifluoromethyl)imidazo[4,5-c]pyridin-2-yl]-3-pyridyl]acetamide]: the percent effect (mortality or growth inhibition) at 200 ppm in experiment [1] (setting [7]), in experiment [3] and in experiment [5] was at least 80% each time. The mortality at 24 ppm in experiment [2] (setting [8]) was at least 80%. In addition, in experiment [6] (setting [11]), the percent control (mortality, anti-feedant effect or growth inhibition) at 200 ppm was at least 80%. For the same molecule, the mortality at 200 ppm in experiment [4] (setting [9]) is at least 80%. Besides, the pest or weed control at 200 ppm in the experiment on Melodoigyne incognita (setting [10]) is at least 80%.
In the case of `CCS(=O)(=O)c1cc(N2CCCC2=O)cnc1-c1nc2cc(C(F)(F)F)ncc2n1C` [P5, 1-[5-ethylsulfonyl-6-[3-methyl-6-(trifluoromethyl)imidazo[4,5-c]pyridin-2-yl]-3-pyridyl]pyrrolidin-2-one], in experiment [1] (Euschistus heros), the mortality at 50 ppm was 100% and the percent effect (mortality or growth inhibition) at 200 ppm is at least 80%. In experiment [2] (Myzus persicae), this molecule displayed a mortality at 1.5 ppm of 80% and a mortality at 24 ppm of at least 80%. For the same molecule, the percent control (mortality or growth inhibition) at 200 ppm in experiment [3] was at least 80%. In experiment [6], the percent control (mortality, anti-feedant effect or growth inhibition) at 200 ppm is at least 80%. Also, in experiment [4] (Myzus persicae), the mortality at 12.5 ppm was found to be 0% and the mortality at 200 ppm was at least 80%. The pest or weed control at 200 ppm in the experiment with Melodoigyne incognita (24 h) is at least 80%.
As for `CCS(=O)(=O)c1cc(N(C)C(=O)C(F)(F)F)cnc1-c1nc2cc(C(F)(F)F)ncc2n1C` [P11, N-[5-ethylsulfonyl-6-[3-methyl-6-(trifluoromethyl)imidazo[4,5-c]pyridin-2-yl]-3-pyridyl]-2,2,2-trifluoro-N-methyl-acetamide], the percent effect (mortality or growth inhibition) at 200 ppm in experiment [1] (setting [7]), in experiment [3] and in experiment [5] was at least 80% in each case. Moreover, the mortality at 24 ppm in experiment [2] (setting [8]) is at least 80%. In experiment [6] (setting [11]), the percent control (mortality, anti-feedant effect or growth inhibition) at 200 ppm is at least 80%. Also, the mortality at 200 ppm in experiment [4] (setting [9]) is at least 80%. The pest or weed control at 200 ppm with Melodoigyne incognita (setting [10]) was at least 80%.
Turning to `CCS(=O)(=O)c1cc(N(OC)C(=O)C2CC2)cnc1-c1nc2cc(C(F)(F)F)ncc2n1C` [P24, N-[5-ethylsulfonyl-6-[3-methyl-6-(trifluoromethyl)imidazo[4,5-c]pyridin-2-yl]-3-pyridyl]-N-methoxy-cyclopropanecarboxamide], the percent effect (mortality or growth inhibition) at 200 ppm in experiment [1] (setting [7]), in experiment [3] and in experiment [5] was at least 80% each time. In experiment [6] (setting [11]), the percent control (mortality, anti-feedant effect or growth inhibition) at 200 ppm was at least 80%. Also, the pest or weed control at 200 ppm with Melodoigyne incognita (setting [10]) is at least 80%.

Source of the values: patent publication US20210047291A1, “PESTICIDALLY ACTIVE HETEROCYCLIC DERIVATIVES WITH SULFUR CONTAINING SUBSTITUENTS” (SYNGENTA PARTICIPATIONS AG, priority 2018, published 2021).
